Data from US12146004B2, “Polymyxin compounds and uses thereof” (priority 2014, dated 2024).
Values after ≈ are worked out from the molar mass of the structure shown. Numbered stars: 1 amine (or outer) side, 2 acyl side, 3 side chain; on linkers, the order of the positions; unused ones are H or OH. Bridge positions count the residues as written; N and C are the ends. Square brackets hold non-standard residues; d marks the D form. Peptide text beside a SMILES is read from it. * marks the point of attachment. ξ: configuration not given here. X5 = CCCCCCCCc1ccc(C[C@@H](N[*:1])C(=O)[*:2])cc1; dPhe(4-CN) = N#Cc1ccc(C[C@@H](N)C(=O)O)cc1; X17 = CCCCCCN([C@@H](CCN)C(=O)[*:2])[*:1]; ξHexahydromandeloyl = O=C(C(O)C1CCCCC1)*; Octanoyl(6-Me) = CCC(C)CCCCC(=O)*; X23 = NCC[C@H](OCc1ccccc1)C(=O)*; dCha = N[C@H](CC1CCCCC1)C(=O)O; Thr(3ξ) = CC(O)[C@H](N)C(=O)O; X25 = CCCCO[C@@H](CCN)C(=O)*; X21 = NCC(CC1CCCCC1)C(=O)*; Dab = NCC[C@H](N)C(=O)O; Dap = NC[C@H](N)C(=O)O; X18 = CCCCC(CCN)C(=O)*

How the values were obtained:
Format in all cases: cell-based
Klebsiella pneumoniae = test system: Klebsiella pneumoniae
Procedure, shortened: (§1)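 MIC (μg/mL) by susceptibility testing against up to nine strains per species, including strains with elevated Polymyxin MICs and resistant isolates.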

Pseudomonas aeruginosa = test system: Pseudomonas aeruginosa
Procedure, shortened: as §1

Escherichia coli = test system: Escherichia coli
Procedure, shortened: as §1

Acinetobacter baumannii = test system: Acinetobacter baumannii
Procedure, shortened: as §1

Compound | MIC K. pneumoniae 063 (Klebsiella pneumoniae) [µg/mL] | MIC K. pneumoniae 065 (Klebsiella pneumoniae) [µg/mL] | MIC K. pneumoniae ATCC 4352 (Klebsiella pneumoniae) [µg/mL] | MIC P. aeruginosa 068 (Pseudomonas aeruginosa) [µg/mL] | MIC P. aeruginosa 070 (Pseudomonas aeruginosa) [µg/mL] | MIC P. aeruginosa ATCC 27853 (Pseudomonas aeruginosa) [µg/mL] | MIC P. aeruginosa CCUG 59347 (Pseudomonas aeruginosa) [µg/mL] | MIC E. coli 058 (Escherichia coli) [µg/mL] | MIC E. coli 061 (Escherichia coli) [µg/mL] | MIC E. coli ATCC 25922 (Escherichia coli) [µg/mL] | MIC A. baumanii 053 (Acinetobacter baumannii) [µg/mL] | MIC A. baumanii 056 (Acinetobacter baumannii) [µg/mL] | MIC A. baumanii ATCC BAA-747 (Acinetobacter baumannii) [µg/mL] | MIC A. baumanii NCTC 13424 (Acinetobacter baumannii) [µg/mL] | MIC K. pneumoniae ATCC 13882 (Klebsiella pneumoniae) [µg/mL] | MIC E. coli NCTC 9001 (Escherichia coli) [µg/mL]
CCC(C)CCCCC(=O)N[C@@H](CCN)C(=O)N[C@H](C(=O)N[C@@H](CCN)C(=O)N[C@H]1CCNC(=O)[C@H]([C@@H](C)O)NC(=O)[C@H](CCN)NC(=O)[C@H](CCN)NC(=O)[C@H](CC(C)C)NC(=O)[C@@H](Cc2ccc(C#N)cc2)NC(=O)[C@H](CCN)NC1=O)C(C)O (stereo partly drawn) [Example 24, Polymyxin B[D-(4-cyano)Phe]-6] ({Octanoyl(6-Me)}-[Dab][Thr(3ξ)][Dab][Dab][Dab][dPhe(4-CN)]L[Dab][Dab]T; lactam 4-C) | 64 (≈ 52.1 µM) | 8 (≈ 6.51 µM) | 0.125 (≈ 0.102 µM) | 32 (≈ 26 µM) | >64 | 0.25 (≈ 0.203 µM) | 0.5 (≈ 0.407 µM) | 4 (≈ 3.26 µM) | 16 (≈ 13 µM) | 0.125 (≈ 0.102 µM) | >64 | >64 | 0.25 (≈ 0.203 µM) | 0.25 (≈ 0.203 µM) |  | 
CCCCCCCCc1ccc(C[C@H]2NC(=O)[C@H](CCN)NC(=O)[C@@H](NC(=O)[C@H](CN)NC(=O)[C@@H](NC(=O)[C@@H](N)CCN)C(C)O)CCNC(=O)[C@H]([C@@H](C)O)NC(=O)[C@H](CCN)NC(=O)[C@H](CCN)NC(=O)[C@H](CC(C)C)NC2=O)cc1 (stereo partly drawn) [Example 29, L-Dab-L-Thr-L-Dap-polymyxin [D-(4-octyl Phe)]-6 heptapeptide] (H-[Dab][Thr(3ξ)][Dap][Dab][Dab][X5]L[Dab][Dab]T; lactam 4-C) |  | >64 |  |  |  | 4 (≈ 3.44 µM) | 8 (≈ 6.89 µM) | 32 (≈ 27.6 µM) |  | 2 (≈ 1.72 µM) |  |  | 4 (≈ 3.44 µM) | 4 (≈ 3.44 µM) |  | 
CC(C)C[C@@H]1NC(=O)[C@@H](CC2CCCCC2)NC(=O)[C@H](CCN)NC(=O)[C@@H](NC(=O)[C@H](CN)NC(=O)[C@@H](NC(=O)C(CN)CC2CCCCC2)C(C)O)CCNC(=O)[C@H]([C@@H](C)O)NC(=O)[C@H](CCN)NC(=O)[C@H](CCN)NC1=O (stereo partly drawn) [Example 31, 3-amino-2-(cyclohexylmethyl) propanoyl L-Thr-L-Dap-polymyxin [D-cyclohexylalanine]-6 heptapeptide] (X21-[Thr(3ξ)][Dap][Dab][Dab][dCha]L[Dab][Dab]T; lactam 3-C) | 16 (≈ 14.3 µM) | 1 (≈ 0.891 µM) |  | 2 (≈ 1.78 µM) | 2 (≈ 1.78 µM) | 0.5 (≈ 0.445 µM) | 1 (≈ 0.891 µM) | 2 (≈ 1.78 µM) | 16 (≈ 14.3 µM) | 0.5 (≈ 0.445 µM) | 32 (≈ 28.5 µM) | 16 (≈ 14.3 µM) | 0.25 (≈ 0.223 µM) | 0.5 (≈ 0.445 µM) | 0.5 (≈ 0.445 µM) | 
CC(C)C[C@@H]1NC(=O)[C@@H](CC2CCCCC2)NC(=O)[C@H](CCN)NC(=O)[C@@H](NC(=O)[C@H](CCN)NC(=O)[C@@H](NC(=O)[C@H](CCN)NC(=O)C(O)C2CCCCC2)C(C)O)CCNC(=O)[C@H]([C@@H](C)O)NC(=O)[C@H](CCN)NC(=O)[C@H](CCN)NC1=O (some centres unmarked) [Example 37] (ξHexahydromandeloyl-[Dab][Thr(3ξ)][Dab][Dab][Dab][dCha]L[Dab][Dab]T; lactam 4-C) |  | 16 (≈ 13.2 µM) |  |  |  | 0.5 (≈ 0.413 µM) | 0.5 (≈ 0.413 µM) | 8 (≈ 6.61 µM) |  | 0.06 (≈ 0.0496 µM) |  |  | 0.125 (≈ 0.103 µM) | 0.5 (≈ 0.413 µM) | 0.25 (≈ 0.207 µM) | 0.06 (≈ 0.0496 µM)
CCCCC(CCN)C(=O)N[C@H](C(=O)N[C@@H](CCN)C(=O)N[C@H]1CCNC(=O)[C@H]([C@@H](C)O)NC(=O)[C@H](CCN)NC(=O)[C@H](CCN)NC(=O)[C@H](CC(C)C)NC(=O)[C@@H](CC2CCCCC2)NC(=O)[C@H](CCN)NC1=O)C(C)O (stereo partly drawn) [Example 40, 2-(2-aminoethyl) hexanoyl [D-cyclohexylalanine]-6 nonapeptide.] (X18-[Thr(3ξ)][Dab][Dab][Dab][dCha]L[Dab][Dab]T; lactam 3-C) | 16 (≈ 14.4 µM) | 2 (≈ 1.8 µM) |  | 4 (≈ 3.6 µM) | 8 (≈ 7.2 µM) | 0.5 (≈ 0.45 µM) | 0.5 (≈ 0.45 µM) | 8 (≈ 7.2 µM) | 16 (≈ 14.4 µM) | 0.125 (≈ 0.113 µM) | >64 | 64 (≈ 57.6 µM) | 0.06 (≈ 0.054 µM) | 0.125 (≈ 0.113 µM) | 0.25 (≈ 0.225 µM) | 0.03 (≈ 0.027 µM)
CCCCO[C@@H](CCN)C(=O)N[C@H](C(=O)N[C@@H](CN)C(=O)N[C@H]1CCNC(=O)[C@H]([C@@H](C)O)NC(=O)[C@H](CCN)NC(=O)[C@H](CCN)NC(=O)[C@H](CC(C)C)NC(=O)[C@@H](CC2CCCCC2)NC(=O)[C@H](CCN)NC1=O)C(C)O (stereo partly drawn) [Example 46, (S)-4-amino-2-butoxybutanoyl L-Thr-L-Dap-polymyxin [D-cyclohexylalanine]-6 heptapeptide.] (X25-[Thr(3ξ)][Dap][Dab][Dab][dCha]L[Dab][Dab]T; lactam 3-C) | >64 | 2 (≈ 1.8 µM) |  | 16 (≈ 14.4 µM) | 32 (≈ 28.8 µM) | 0.5 (≈ 0.449 µM) | 0.5 (≈ 0.449 µM) | 8 (≈ 7.19 µM) |  | 0.125 (≈ 0.112 µM) | >64 | >64 | 0.125 (≈ 0.112 µM) | 0.125 (≈ 0.112 µM) | 0.25 (≈ 0.225 µM) | 
CC(C)C[C@@H]1NC(=O)[C@@H](CC2CCCCC2)NC(=O)[C@H](CCN)NC(=O)[C@@H](NC(=O)[C@H](CN)NC(=O)[C@@H](NC(=O)[C@H](CCN)OCc2ccccc2)C(C)O)CCNC(=O)[C@H]([C@@H](C)O)NC(=O)[C@H](CCN)NC(=O)[C@H](CCN)NC1=O (stereo partly drawn) [Example 48, (S)-4-amino-2-(benzyloxy) butanoyl L-Thr-L-Dap-polymyxin [D-cyclohexylalanine]-6 heptapeptide.] (X23-[Thr(3ξ)][Dap][Dab][Dab][dCha]L[Dab][Dab]T; lactam 3-C) | 64 (≈ 55.8 µM) | 5 (≈ 4.36 µM) |  | 8 (≈ 6.98 µM) | 16 (≈ 14 µM) | 0.25 (≈ 0.218 µM) | 0.25 (≈ 0.218 µM) | 4 (≈ 3.49 µM) | 32 (≈ 27.9 µM) | 0.125 (≈ 0.109 µM) | >64 | 32 (≈ 27.9 µM) | 0.125 (≈ 0.109 µM) | 0.25 (≈ 0.218 µM) | 0.125 (≈ 0.109 µM) | 
CCCCCCN[C@@H](CCN)C(=O)N[C@H](C(=O)N[C@@H](CN)C(=O)N[C@H]1CCNC(=O)[C@H]([C@@H](C)O)NC(=O)[C@H](CCN)NC(=O)[C@H](CCN)NC(=O)[C@H](CC(C)C)NC(=O)[C@@H](CC2CCCCC2)NC(=O)[C@H](CCN)NC1=O)C(C)O (stereo partly drawn) [Example 49, (S)-4-amino-2-(hexylamino) butanoyl L-Thr-L-Dap-polymyxin [D-cyclohexylalanine]-6 heptapeptide.] (H-[X17][Thr(3ξ)][Dap][Dab][Dab][dCha]L[Dab][Dab]T; lactam 4-C) | 32 (≈ 28.1 µM) | 2 (≈ 1.76 µM) |  | 2 (≈ 1.76 µM) | 2 (≈ 1.76 µM) | 0.25 (≈ 0.219 µM) | 0.25 (≈ 0.219 µM) | 2 (≈ 1.76 µM) | 16 (≈ 14 µM) | 0.5 (≈ 0.439 µM) | 64 (≈ 56.2 µM) | 64 (≈ 56.2 µM) | 0.5 (≈ 0.439 µM) | 0.25 (≈ 0.219 µM) | 0.5 (≈ 0.439 µM) | 0.125 (≈ 0.11 µM)
